Reference: patent US20250017942A1, “Prevention and treatment of osteoarticular diseases by inhibiting acetylcholinesterase” (priority 2021, published 2025)
Counter-ions that a name gives are not always drawn.

Assays:
[1] = biological target: AChE (rat cortex homogenate) (Rattus norvegicus, UniProt P37136); test: biochemical; assay type: biochemical; details: for IC50: rat cortex homogenate, in the presence of ethopropazine as a specific BuChE inhibitor
[2] = test system: ATDC5 cells; test: IL-1β-stimulated ATDC5 cells, marker expression by qPCR; assay type: cell-based, mouse; details: 10 ng/ml IL-1β, 24 h, qPCR (FIG. 3A)
[3] = test system: RAW 264.7 cells; test: RANKL-induced osteoclastogenesis of RAW 264.7 cells; assay type: cell-based, mouse; details: RAW 264.7, RANKL 15 ng/ml 3 days, 0.1, 0.5 and 1 μM (FIG. 9)

Chain of AChE (rat cortex homogenate) (P37136 32-614): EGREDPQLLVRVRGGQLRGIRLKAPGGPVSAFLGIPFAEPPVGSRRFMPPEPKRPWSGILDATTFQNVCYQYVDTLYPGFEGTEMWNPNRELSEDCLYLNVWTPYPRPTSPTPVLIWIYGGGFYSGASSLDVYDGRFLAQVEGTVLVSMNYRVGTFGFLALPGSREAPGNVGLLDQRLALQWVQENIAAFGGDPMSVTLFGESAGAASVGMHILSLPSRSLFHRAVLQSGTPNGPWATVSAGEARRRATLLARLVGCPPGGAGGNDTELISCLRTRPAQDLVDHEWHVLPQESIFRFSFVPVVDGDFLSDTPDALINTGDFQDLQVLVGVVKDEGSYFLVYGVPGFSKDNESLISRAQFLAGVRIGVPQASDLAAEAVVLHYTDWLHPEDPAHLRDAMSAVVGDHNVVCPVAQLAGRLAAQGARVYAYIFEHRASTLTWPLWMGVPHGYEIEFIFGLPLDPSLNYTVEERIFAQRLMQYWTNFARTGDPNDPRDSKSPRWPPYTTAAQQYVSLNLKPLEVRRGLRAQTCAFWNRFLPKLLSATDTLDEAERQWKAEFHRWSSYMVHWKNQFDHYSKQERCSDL

Q: With `O=c1ccc2c([nH]1)CCCC2NCCCCCCCCCCCNC1CCCc2[nH]c(=O)ccc21` (stereo not drawn) [E11E] as the compound, how does the IC50 [1] read?
A: 84 ± 5 nM

Q: How did the “Pro-inflammatory cytokine expression after IL-1β stimulation” value [2] turn out when `O=c1ccc2c([nH]1)CCC[C@@H]2NCCCCCCCCCCCCN[C@H]1CCCc2[nH]c(=O)ccc21` [E12E, (S,S)-(−)-N, N′-di-5′-(5′, 6′7′,8′-tetrahydroquinolin-2-onyl)-1,12-diaminododecane, bis-hydrochloride] was run?
A: down-regulating key pro-inflammatory cytokines including TNF-alpha

Q: And the “Potency in inhibiting rat brain AChE relative to HA” value [1]?
A: about twice as potent as HA

Q: And the “Potency in inhibiting rat brain AChE relative to tacrine” value [1]?
A: about 4.4 times

Q: And the Osteoclastogenesis [3]?
A: suppressed osteoclastogenesis in a dose-dependent manner

Q: How did the IC50 [1] turn out when `O=c1ccc2c([nH]1)CCCC2NCCCCCCCCCCCCCNC1CCCc2[nH]c(=O)ccc21` (stereo not drawn) [E13E] was run?
A: 52 ± 9 nM
